According to US20200368364A1, “CYSTEINE PEPTIDE-ENABLED ANTIBODIES” (City of Hope, priority 2016, published 2020):

How the values were obtained:
[1] = system: mutated I83 trastuzumab memAb (I83 mutated to glutamate); assay: SPR of meditope peptide variants binding to immobilized memAb variant; details: SPR at 37° C.; original meditope; vs original trastuzumab memAb
Description: FIG. 3A-3H. […] FIG. 3E-H) SPR sensograms collected at 37° C.

[2] = system: cetuximab or the meditope-enabled trastuzumab; assay: Lifetime of the meditope-Fab interaction; type: binding; details: 37° C.
Text: Since the cyclic, twelve residue peptide binds in a hole that runs through the middle of the Fab arm, Applicants have named it a meditope. Antigen binding is not altered after grafting or in the presence of the meditope^14-15. As such, Applicants understood that they could use the meditope interaction as a hitch for the delivery of cytotoxins, imaging agents, or biologics. […] Applicants further improved the lifetime by creating a mechanical bond by modifying the arginine at position 8 with an azide, threading it through the Fab hole, and using click chemistry to sterically block its dissociation. While the lifetime of this mechanically interlocked Fab complex is difficult to ascertain, Applicants were capable of imaging tumors in animal xenografts.

SKBR3 cells = assay: Cell viability (CellTiter-Glo) for DM1 and MMAE conjugates; type: cell-based; details: 72 h, read-out: EC50 (cell viability / lysis)

Substance | increase in affinity with I83 mutated to glutamate [1] | lifetime of the meditope peptide on the Fab [2] | EC50 (SKBR3 cells) [nM]
Ac-CQFDLSTRRLKC-Am (Ac-CQFDLSTRRLKC-NH2; not fully specified (bridges); printed as Ac-CQFDLSTRRLKC-Am; also: cyclic, kind not given here) [original meditope, serine at position 6] | ~25 | seconds | –
trastuzumab emtansine [clinical DM1] | – | – | 0.093
